# Like-named read-outs stand apart in the source and are kept apart here. Square brackets hold non-standard residues; d marks the D form. Peptide text beside a SMILES is read from it. * marks the point of attachment. Sta = CC(C)C[C@H](N)[C@@H](O)CC(=O)O; Isovaleryl = CC(C)CC(=O)*
# Tests used:
# [1] = tested on: L-pantolactone hydrolase from Lu681; assay: Optical lipase assay with resorufin ester in microtiter plate; assay type: biochemical, Burkholderia caryophylli; conditions: Lu681 enzyme, 60 to 482 U/l
# [2] = tested on: L-pantolactone hydrolase from Lu681; assay: Substrate specificity of purified L-pantolactone hydrolase from Lu681 (HPLC); assay type: biochemical, Burkholderia caryophylli
# [3] = tested on: L-pantolactone hydrolase from Lu5351; assay: Substrate specificity of purified L-pantolactone hydrolase from Lu5351 (HPLC); assay type: biochemical, Agrobacterium radiobacter
# [4] = tested on: L-pantolactone hydrolase from Burkholderia caryophylli Lu681; assay: Inhibition and activation by added substances, standard assay, Lu681 enzyme; assay type: biochemical
# [5] = tested on: L-pantolactone hydrolase from Agrobacterium radiobacter Lu5351; assay: Inhibition and activation by added substances, standard assay, Lu5351 enzyme; assay type: biochemical
# [6] = tested on: D-pantolactone hydrolase; conditions: cited from earlier work
# [7] = tested on: recombinant 681 lactonase; assay type: biochemical, Burkholderia caryophylli
# [8] = added substance 1 mM, 150 mM L-pantolactone, 1 h, 30° C., vs no addition
# [9] = substrate 2.5 mN, 0.1 U/ml enzyme, 150 mM Pipes pH 6.8
# [10] = added substance 0.1%, vs no addition
# [11] = substrate 150 mN, 0.1 U/ml enzyme, 150 mM Pipes pH 6.8
# [12] = substrate 10 mN, 0.1 U/ml enzyme, 150 mM Pipes pH 6.8
# [13] = substrate 50 mN, 0.1 U/ml enzyme, 150 mM Pipes pH 6.8
compound,measurement,setting,value
"CCCCCCCCCCCCOCC(COC(=O)CCCC(=O)Oc1ccc2nc3ccc(=O)cc-3oc2c1)OCCCCCCCCCCCC (racemic) [1,2-O-Dilauryl-rac-glycero-3-glutaric acid resorufin ester]",lipase activity as share of the L-pantolactone hydrolase activity,[1],about 0.05%
same,Activity,[2],(+) (key: ++: >50 U/l; +: >5 U/l; (+): >0.5 U/l; −: <0.5 U/l)
same,Activity,[3],(+) (key: ++: >50 U/l; +: >5 U/l; (+): >0.5 U/l; −: <0.5 U/l)
"O[C@H](CS)[C@H](O)CS (racemic) [DTT, Dithiothreitol]",Relative Activity,[4]; [8],99%
same,Relative Activity,[5]; [8],106%
O=C1Cc2cc(O)ccc2O1 [5-Hydroxy-2-coumaranone],Activity,[2]; [9],+ (+: >5 U/l)
CC#N [Acetonitrile],Relative Activity,[4],119%
"C[C@H](CCC(=O)NCCC[N+](C)(C)CCCS(=O)(=O)[O-])[C@H]1CC[C@H]2[C@@H]3[C@H](O)C[C@@H]4C[C@H](O)CC[C@]4(C)[C@H]3C[C@H](O)[C@]12C [CHAPS, ([3-Cholamidopropyl]-dimethylammonio)-1-propane-sulfonate]",Relative Activity,[4]; [10],104%
same,Relative Activity,[5]; [10],100%
[Ca+2].[Cl-].[Cl-] [CaCl2],Relative Activity,[4],101%
same,Relative Activity,[5],105%
[Cd+2] [Cd^2+],inhibition of the enzyme,[6],inhibited
O=C(O)CC(O)(CC(=O)O)C(=O)O [Citric acid],Relative Activity,"[4]; added substance 30 mM, pH 6.4, vs no addition",97%
[Cu+2] [Cu^2+],inhibition of the enzyme,[6],inhibited
O=C1OC(C(O)CO)C(O)C1O [D-(−)-Gulono-γ-lactone],Activity,[3]; pH 6.8,++ (key: ++: >50 U/l; +: >5 U/l; (+): >0.5 U/l; −: <0.5 U/l)
O=C1OC(C(O)CO)C(O)C1O [D-Galactono-γ-lactone],Activity,[2]; pH 6.8,+ (key: ++: >50 U/l; +: >5 U/l; (+): >0.5 U/l; −: <0.5 U/l)
same,Activity,[3]; pH 6.8,++ (key: ++: >50 U/l; +: >5 U/l; (+): >0.5 U/l; −: <0.5 U/l)
CC1(C)COC(=O)C1O [D-Pantolactone],Activity,[2]; [11],− (−: <0.5 U/l)
same,type of inhibition,[7],competitive inhibition
same,Activity,[3]; [11],(+) ((+): >0.5 U/l)
O=C1CCc2ccccc2O1 [Dihydrocumarin],Activity,[3]; pH 6.8,+ (key: ++: >50 U/l; +: >5 U/l; (+): >0.5 U/l; −: <0.5 U/l)
"O=C(O)CN(CCN(CC(=O)O)CC(=O)O)CC(=O)O [EDTA, Ethylenediaminetetraacetic acid]",inhibition of the enzyme,"[6]; U.S. Pat. No. 5,372,940",inhibited
same,Relative Activity,[4]; [8],97%
same,Relative Activity,[5]; [8],97%
CCOC(=O)C(C)O (stereo not drawn) [Ethyl (L)(−)-lactate],Activity,[2]; [11],++ (++: >50 U/l)
same,Activity,[3]; [11],++ (++: >50 U/l)
CCOC(=O)[C@@H](C)O [Ethyl D(+)-lactate],Activity,[2]; [11],+ (+: >5 U/l)
same,Activity,[3]; [11],+ (+: >5 U/l)
[Cl][Fe][Cl] [FeCl2],Relative Activity,[4],104%
same,Relative Activity,[5],108%
OO [H2O2],Relative Activity,[4],95%
[Cl][Hg][Cl] [HgCl2],Relative Activity,[4],133%
same,Relative Activity,[5],170%
[Hg+2] [Hg^2+],inhibition of the enzyme,[6],inhibited
O=C1Nc2ccccc2C1=O [Isatin],Activity,[2]; [12],+ (+: >5 U/l)
same,Activity,[3]; [12],(+) ((+): >0.5 U/l)
CC(C)O [Isopropanol],Relative Activity,"[4]; added substance 10%, vs no addition",93%
[Cl-].[K+] [KCl],Relative Activity,[4],99%
O=C1OC(C(O)CO)C(O)C1O [L-(+)-Gulono-γ-lactone],Activity,[2]; [11],+ (+: >5 U/l)
same,Activity,[3]; [11],++ (++: >50 U/l)
O=C1O[C@H]([C@@H](O)CO)[C@@H](O)[C@@H]1O [L-Galactono-γ-lactone],Activity,[2]; pH 6.8,++ (key: ++: >50 U/l; +: >5 U/l; (+): >0.5 U/l; −: <0.5 U/l)
same,Activity,[3]; pH 6.8,++ (key: ++: >50 U/l; +: >5 U/l; (+): >0.5 U/l; −: <0.5 U/l)
CO [MeOH],Relative Activity,[4],100%
[Cl-].[Cl-].[Mg+2] [MgCl2],Relative Activity,[4],99%
same,Relative Activity,[5],114%
[Cl][Mn][Cl] [MnCl2],Relative Activity,[4],100%
Cl.N [NH4Cl],Relative Activity,[4],100%
[Cl][Ni][Cl] [NiCl2],Relative Activity,[4],96%
O=S(=O)(F)Cc1ccccc1 [PMSF],Relative Activity,[4],113%
CC(C)CC(=O)N[C@H](C(=O)N[C@H](C(=O)N[C@@H](CC(C)C)[C@@H](O)CC(=O)N[C@@H](C)C(=O)N[C@@H](CC(C)C)[C@@H](O)CC(=O)O)C(C)C)C(C)C [Pepstatin] (Isovaleryl-VV[Sta]A[Sta]-OH),Relative Activity,[4]; [8],117%
CC1(C)COC(=O)[C@H]1O [S-Pantolactone],Activity,[2]; pH 6.8,++ (key: ++: >50 U/l; +: >5 U/l; (+): >0.5 U/l; −: <0.5 U/l)
same,Activity,[3]; pH 6.8,++ (key: ++: >50 U/l; +: >5 U/l; (+): >0.5 U/l; −: <0.5 U/l)
"CCCCCCCCCCCCOS(=O)(=O)[O-].[Na+] [SDS, Sodium dodecyl sulfate]",Relative Activity,"[4]; added substance 1%, vs no addition",102%
same,Relative Activity,"[5]; added substance 1%, vs no addition, sulfate",74%
[Cl-].[Cl-].[Zn+2] [ZnCl2],Relative Activity,[4],113%
same,Relative Activity,[5],99%
c1cnc2c(c1)ccc1cccnc12 [o-Phenanthroline],Relative Activity,[4],95%
"O=S(=O)(O)c1cc[c]([Hg][Cl])cc1 [pCMBS, p-Chloromercuribiphenylsulfonic [sic] acid]",Relative Activity,[4],108%
same,Relative Activity,[5],112%
CC(=O)Oc1cccc2ccccc12 [α-Naphthyl acetate],Activity,[2]; [9],(+) ((+): >0.5 U/l)
same,Activity,[3]; [9],(+) ((+): >0.5 U/l)
O=C1CCCO1 [γ-Butyrolactone],Activity,[2]; pH 6.8,+ (key: ++: >50 U/l; +: >5 U/l; (+): >0.5 U/l; −: <0.5 U/l)
same,Activity,[3]; pH 6.8,++ (key: ++: >50 U/l; +: >5 U/l; (+): >0.5 U/l; −: <0.5 U/l)
CC1CCC(=O)O1 (stereo not shown) [γ-Valerolactone],Activity,[2]; pH 6.8,+ (key: ++: >50 U/l; +: >5 U/l; (+): >0.5 U/l; −: <0.5 U/l)
same,Activity,[3]; pH 6.8,++ (key: ++: >50 U/l; +: >5 U/l; (+): >0.5 U/l; −: <0.5 U/l)
CCCCC1CCCC(=O)O1 (stereo not shown) [δ-Nonalactone],Activity,[2]; pH 6.8,+ (key: ++: >50 U/l; +: >5 U/l; (+): >0.5 U/l; −: <0.5 U/l)
same,Activity,[3]; pH 6.8,++ (key: ++: >50 U/l; +: >5 U/l; (+): >0.5 U/l; −: <0.5 U/l)
O=C1CCCCO1 [δ-Valerolactone],Activity,[2]; [13],+ (+: >5 U/l)
same,Activity,[3]; [13],++ (++: >50 U/l)
O=C1CCCCCO1 [ε-Caprolactone],Activity,[2]; pH 6.8,++ (key: ++: >50 U/l; +: >5 U/l; (+): >0.5 U/l; −: <0.5 U/l)
same,Activity,[3]; pH 6.8,++ (key: ++: >50 U/l; +: >5 U/l; (+): >0.5 U/l; −: <0.5 U/l)
CoCl2,Relative Activity,[4],97%
Triton,Relative Activity,[4],104%

# From patent publication US6998258B1, “L-pantolactone-hydrolase and a method for producing D-pantolactone” (BASF Aktiengesellschaft, priority 1999, dated 2006)
